These results are taken from patent US20090239841A1, “Diaryl Ureas as CB1 Antagonists” (priority 2004, published 2009).

The structures appear in SMILES notation. pIC50: −log10 of the molar value. Where only a bound is given, the exact number is not on record here.

The target of the first assay is T1, hCB1 (Homo sapiens, UniProt P21554).
T1 construct: made in house; host or cells: Sf9 insect cells (baculovirus), P2 membranes
T1 sequence (P21554 whole entry): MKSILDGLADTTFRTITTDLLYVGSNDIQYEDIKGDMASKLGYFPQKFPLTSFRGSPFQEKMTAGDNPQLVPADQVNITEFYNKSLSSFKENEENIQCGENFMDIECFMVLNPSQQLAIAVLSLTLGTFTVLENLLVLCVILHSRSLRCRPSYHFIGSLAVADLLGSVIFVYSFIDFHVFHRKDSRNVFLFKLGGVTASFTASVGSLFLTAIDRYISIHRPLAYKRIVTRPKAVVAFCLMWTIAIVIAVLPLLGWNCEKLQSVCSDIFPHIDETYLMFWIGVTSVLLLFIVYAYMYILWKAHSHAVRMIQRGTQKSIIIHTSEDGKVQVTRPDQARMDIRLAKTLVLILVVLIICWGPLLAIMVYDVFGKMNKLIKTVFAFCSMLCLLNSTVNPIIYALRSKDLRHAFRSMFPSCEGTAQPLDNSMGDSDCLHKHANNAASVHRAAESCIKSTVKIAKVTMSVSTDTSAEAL
Briefly: Agonist-induced GTP binding (GTPγ35S) assay at CB1, Example 8. As to conditions: IC50 at CB1, determined as described in Example 8; read-out: IC50. It is filed as biochemical. The method, boiled down: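 Antagonism read as inhibition of 1 nM CP55,940-stimulated GTPγ35S ([…]) binding, compounds at 10^−10 to 10^−5 M. Baculovirus-infected Sf9 membranes bearing hCB1 plus G-protein subunits, 60 min room-temperature incubation with 5 μM GDP. Filtration and scintillation counting; data as percent over basal.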
In general, pIC50 refers to the IC50 on a negative log10 scale, so that one unit is a factor of ten. For the compound `N#CCc1ccc(NC(=O)Nc2cccc(C#N)c2)cc1` [Compound 503, 1-[4-(cyanomethyl)phenyl]-3-(3-cyanophenyl)urea], the pIC50 was above 5.70.
Take `CCOc1ccc(NC(=O)Nc2cccc(C)c2)cc1` [Compound 302, 1-(4-ethoxyphenyl)-3-(3-methylphenyl)urea]: the pIC50 was above 5.70.
Turning to `CCN(CC)C(=O)c1ccccc1NC(=O)Nc1ccc(OC(F)F)cc1` [Compound 603], the pIC50 is above 5.70.
As to `Cc1ccc(NC(=O)Nc2ccc(Cl)nc2)cc1C` [Compound 780, 1-(6-chloropyridin-3-yl)-3-(3,4-dimethylphenyl)urea], the pIC50 was above 5.70.
Same read-out and setting: the result for `CCOc1ccc(NC(=O)Nc2cccc(OC(C)C)c2)cc1` [Compound 550, 1-(4-ethoxyphenyl)-3-(3-isopropoxyphenyl)urea] reads above 5.70; that for `CCc1ccc(NC(=O)Nc2ccc(C)c(Cl)c2)cc1` [Compound 444, 1-(3-chloro-4-methylphenyl)-3-(4-ethylphenyl)urea], above 5.70; that for `CCCc1ccc(NC(=O)Nc2ccc(F)cc2)cc1` [Compound 328, 1-(4-fluorophenyl)-3-(4-propylphenyl)urea], above 5.70.
The same measure, in the same setting: in the case of `COC(=O)c1ccc(NC(=O)Nc2ccc(CC#N)cc2)cc1` [Compound 713, methyl 4-[({[4-(cyanomethyl)phenyl]amino}carbonyl)amino]benzoate] it was above 5.70; in that of `CCC(=O)c1ccc(NC(=O)Nc2cccc(C#N)c2)cc1` [Compound 509, 1-(3-cyanophenyl)-3-(4-propionylphenyl)urea], above 5.70; in that of `COc1ccc(NC(=O)Nc2ccc(OC(C)C)cc2)cc1` [Compound 552, 1-(4-isopropoxyphenyl)-3-(4-methoxyphenyl)urea], above 5.70.
Same read-out and setting: the result for `CCOc1cccc(NC(=O)Nc2cccc(CC)c2)c1` [Compound 384, 1-(3-ethoxyphenyl)-3-(3-ethylphenyl)urea] reads above 5.70.
Turning to `CCOc1cccc(NC(=O)Nc2ccccc2)c1` [Compound 374, 1-(3-ethoxyphenyl)-3-phenylurea], the pIC50 was above 5.70.
The same measure, in the same setting: in the case of `Cc1ccc(NC(=O)Nc2ccc(C(C)C)cc2)cc1F` [Compound 626, 1-(3-fluoro-4-methylphenyl)-3-(4-isopropylphenyl)urea] it was above 5.70; in that of `CCOC(=O)c1ccc(NC(=O)Nc2ccc(OCC)cc2)cc1` [Compound 595, ethyl 4-({[(4-ethoxyphenyl)amino]carbonyl}amino)benzoate], above 5.70; in that of `O=C(Nc1ccccc1)Nc1ccc2c(c1)CCC2` [Compound 316, 1-(2,3-dihydro-1H-inden-5-yl)-3-phenylurea], above 5.70.
On the same count and under the same terms, the result for `O=C(Nc1ccc(OC(F)F)cc1)Nc1ccc(F)c(F)c1` [Compound 609, 1-[4-(difluoromethoxy)phenyl]-3-(3,4-difluorophenyl)urea] reads above 5.70.
Same read-out and setting: the result for `O=C(Nc1ccc(S(=O)(=O)N2CCNCC2)cc1)Nc1cccc(OC(F)F)c1` [Compound 789, N-[3-(difluoromethoxy)phenyl]-N′-[4-(1-piperazinylsulfonyl)phenyl]urea] reads above 5.70; that for `CCOc1ccc(NC(=O)Nc2ccc(C)c(F)c2)cc1` [Compound 616, 1-(4-ethoxyphenyl)-3-(3-fluoro-4-methylphenyl)urea], above 5.70; that for `CCOc1ccc(NC(=O)Nc2cccc(OC(F)F)c2)cc1` [Compound 555, 1-[3-(difluoromethoxy)phenyl]-3-(4-ethoxyphenyl)urea], above 5.70.
`Cc1ccc(NC(=O)Nc2cccc(OC(C)C)c2)cc1` [Compound 298, N-(3-isopropoxyphenyl)-N′-(4-methylphenyl)urea]: the pIC50 was above 5.70.
Same read-out and setting: the result for `Cc1ccc(NC(=O)Nc2ccc(O)cc2)cc1F` [Compound 760, 1-(3-fluoro-4-methylphenyl)-3-(4-hydroxyphenyl)urea] reads above 5.70; that for `CC(=O)c1ccc(NC(=O)Nc2ccc(F)cc2)cc1` [Compound 340, 1-(4-acetylphenyl)-3-(4-fluorophenyl)urea], above 5.70.
Same read-out and setting: the result for `CCOc1cccc(NC(=O)Nc2ccc([N+](=O)[O-])cc2)c1` [Compound 558, 1-(3-ethoxyphenyl)-3-(4-nitrophenyl)urea] reads above 5.70.

Staying with this assay, now noted: Table I; IC50 at CB1, GTP binding with 1 nM CP55,940; read-out: IC50.
Take `COc1cc(NC(=O)Nc2ccc(OC(F)F)cc2)ccc1OC(F)F` [Compound 6, N-[4-(difluoromethoxy)-3-methoxyphenyl]-N′-[4-(difluoromethoxy)phenyl]urea]: the pIC50 was above 5.70.

Staying with this assay, now noted: Table II; IC50 at CB1, GTP binding with 1 nM CP55,940; read-out: IC50.
`Cc1ccc(NC(=O)Nc2ccc(N3CCCCC3)cc2)cc1` [Compound 169, N-(4-methylphenyl)-N′-(4-piperidin-1-ylphenyl)urea]: the pIC50 is above 5.70.
The same measure, in the same setting: in the case of `CCCOc1ccc(NC(=O)Nc2cccc(Cl)c2)cc1` [Compound 244, N-(3-chlorophenyl)-N′-(4-propoxyphenyl)urea] it was above 5.70; in that of `CC(C)c1ccc(NC(=O)Nc2ccc(F)cc2)cc1` [Compound 176, N-(4-fluorophenyl)-N′-(4-isopropylphenyl)urea], above 5.70; in that of `Cc1ccc(NC(=O)Nc2ccc(-n3cnc(Cl)c3Cl)cc2)cc1` [Compound 166, N-[4-(4,5-dichloro-1H-imidazol-1-yl)phenyl]-N′-(4-methylphenyl)urea], above 5.70.
As to `CCCc1ccc(NC(=O)Nc2cccc(C(C)=O)c2)cc1` [Compound 199, N-(3-acetylphenyl)-N′-(4-propylphenyl)urea], the negative-log IC50 (pIC50) was above 5.70.
Still for that read-out and setting: in the case of `Cc1n[nH]c(C)c1-c1cccc(NC(=O)Nc2ccc(OC(F)F)cc2)c1` [Compound 117, N-[4-(difluoromethoxy)phenyl]-N′-[3-(3,5-dimethyl-1H-pyrazol-4-yl)phenyl]urea] it was above 5.70.
The same measure, in the same setting: the result for `CC(C)Oc1cccc(NC(=O)Nc2ccc(Cl)cc2)c1` [Compound 248] reads above 5.70; that for `Cc1ccc(NC(=O)Nc2cccc(-c3ccnc(C)n3)c2)cc1` [Compound 164, N-(4-methylphenyl)-N′-[3-(2-methylpyrimidin-4-yl)phenyl]urea], above 5.70.
On the same count and under the same terms, the result for `O=C(Nc1ccc(OC(F)F)cc1)Nc1cc(Cl)cc(Cl)c1` [Compound 93, N-(3,5-dichlorophenyl)-N′-[4-(difluoromethoxy)phenyl]urea] reads above 5.70; that for `O=C(Nc1ccc(OC(F)F)cc1)Nc1cccc(-c2ccc3ncccc3c2)c1` [Compound 67, N-[4-(difluoromethoxy)phenyl]-N′-(3-quinolin-6-ylphenyl)urea], above 5.70.
Consider `Cc1ccc(NC(=O)Nc2ccc(OC(F)F)cc2)cc1C` [Compound 90, N-[4-(difluoromethoxy)phenyl]-N′-(3,4-dimethylphenyl)urea], for which the pIC50 is above 5.70.
Still for that read-out and setting: the result for `COc1ccc(NC(=O)Nc2ccc(OC(F)F)cc2)cn1` [Compound 113, N-[4-(difluoromethoxy)phenyl]-N′-(6-methoxypyridin-3-yl)urea] reads above 5.70.
Take `CC(C)Oc1ccc(NC(=O)Nc2cccc(F)c2)cc1` [Compound 215, N-(3-fluorophenyl)-N′-(4-isopropoxyphenyl)urea]: the pIC50 was above 5.70.
As for `CCCc1ccc(NC(=O)Nc2cccc(F)c2)cc1` [Compound 177, N-(3-fluorophenyl)-N′-(4-propylphenyl)urea], the pIC50 is above 5.70.
On the same count and under the same terms, the result for `CCc1ccc(NC(=O)Nc2cnc3ccccc3c2)cc1` [Compound 125, N-(4-ethylphenyl)-N′-quinolin-3-ylurea] reads above 5.70.
